Measured values reported in PMC8224630, “Cytotoxicity and Nitric Oxide Production Inhibitory Activities of Compounds Isolated from the Plant Pathogenic Fungus Curvularia sp” (Journal of Fungi, 2021).
Like-named read-outs stand apart in the source and are kept apart here. Blank lines part the entries; values can stand above or below the compound they belong to.

How the values were obtained:
[1] = Cytotoxicity assay against lung cancer A549 cells, MTT; conditions: human, A549 lung cancer cells
Procedure: (§1) Lung cancer A549 and colorectal cancer SW480 cells were maintained with Dulbecco’s modified Eagle’s medium (DMEM) containing 10% fetal bovine serum (FBS) and 1% penicillin/streptomycin. Leukemic K562 cells were cultured in RPMI-1640 supplemented with 10% fetal bovine serum (FBS) and 1% penicillin/streptomycin. All cells were cultured in 96-well plates at 37 °C in 5% CO2, followed by treatment with the sample for 24 h. After the incubation period, 0.5 mg/mL MTT was added to the cells and left for 4 h. The formazan was dissolved in DMSO and measured at 570 nm using Biochrom EZ Read 400 ELISA microplate reader (Biochrom Ltd., Cambridge, UK).

[2] = Cytotoxicity assay in mammalian cells (RAW 264.7), MTT; conditions: mouse, RAW 264.7 cells
Procedure: (§2) Cell viability was measured by the MTT assay. RAW 264.7 cells were seeded at 4 × 10^4 cells/well in 96-well plates and incubated at 37 °C and 5% CO2 overnight. Cells were treated with different concentrations of tea extracts, including 3.125, 6.25, 12.5, 25, 50, and 100 µg/mL, for 24 h. After 24 h, cells were washed with PBS and incubated with 0.5 mM MTT reagent for 4 h. The detection of formazan at 570 nm was performed with a Biochrom EZ Read 400 ELISA microplate reader (Biochrom Ltd., Cambridge, UK). The data were calculated as IC50 values with GraphPad Prism 6.0 software.

[3] = Cytotoxicity assay against leukemic K562 cells, MTT; conditions: human, K562 leukemic cells
Procedure: as §1

[4] = Cytotoxicity assay against colorectal cancer SW480 cells, MTT; conditions: human, SW480 colorectal cancer cells
Procedure: as §1

[5] = test system: nitric oxide (NO) production in RAW 264.7 cells; experiment: Nitric oxide (NO) production inhibitory assay, LPS-stimulated RAW 264.7 cells, Griess reagent; type: cell-based; conditions: for inhibition at 100 µg/mL: read-out: % of NO Inhibition at 100 µg/mL; for IC50: read-out: NO Production Inhibition IC50
Procedure: This assay was performed as previously described. […] After 24 h, 100 µL of Griess reagent was added to the samples for 10 min. […] Additionally, the data are presented as the IC50, which was calculated with GraphPad Prism 6.0 software.

lung cancer A549 cells = experiment: Cytotoxicity assay against lung cancer A549 cells, MTT; conditions: Homo sapiens, A549, 24 h, read-out: IC50 cytotoxicity A549 (Lung Cancer)
Procedure: as §1

leukemic K562 cells = experiment: Cytotoxicity assay against leukemic K562 cells, MTT; conditions: Homo sapiens, K562, 24 h, read-out: IC50 cytotoxicity K562 (Leukemic Cells)
Procedure: as §1

[6] = test system: colorectal cancer SW480 cells; experiment: Cytotoxicity assay against colorectal cancer SW480 cells, MTT; conditions: Homo sapiens, SW480, 24 h, read-out: IC50 cytotoxicity SW480 (Colorectal Cancer)
Procedure: as §1

in vitro = conditions: mouse
Procedure: as §2

[7] = test system: lung cancer (A549) cell line; parameters: method as in doi:10.1007/s10600-015-1259-y; conditions: 30 µg/mL; cited from earlier work
[8] = Mus musculus, RAW264.7, 100 µg/mL, LPS 1 µg/mL, 24 h
[9] = Mus musculus, RAW264.7, LPS 1 µg/mL, 24 h

- melting point: 185 to 187 °C
- IC50 [5, 9]: 53.7 µM
SMILES: CC[C@H](C)[C@@H](OC(C)=O)[C@@H](C)C1=C(N)C(=O)C2=C(O[C@]3(C)CC[C@H]4O[C@@H](C(C)(C)O)CC[C@]4(C)[C@H]3[C@@H]2O)C1=O [Compound 1, cochlioquinone N]
- viability at 24 h, 100 µg/mL [1]: 88.5 ± 1.19%
- viability at 24 h, 100 µg/mL [2]: 97.14 ± 0.81%
- viability at 24 h, 100 µg/mL [3]: 81.1 ± 3.8%
- viability at 24 h, 100 µg/mL [4]: 82.6 ± 1.68%
- inhibition at 100 µg/mL [5, 8]: 51.3 ± 1.65%

SMILES: CC[C@H](C)[C@@H](OC(C)=O)[C@@H](C)C1=CC(=O)C2=C(O[C@]3(C)CC[C@H]4O[C@@H](C(C)(C)O)CC[C@]4(C)[C@H]3[C@@H]2O)C1=O [Compound 2, cochlioquinone A]
- IC50 (lung cancer A549 cells): 14.3 µM
- viability at 24 h, 6.25 µg/mL [1]: 73.1 ± 1.09%
- viability at 24 h, 12.5 µg/mL [1]: 23.1 ± 1.84%
- viability at 24 h, 25 µg/mL [1]: 17.9 ± 1.93%
- viability at 24 h, 50 µg/mL [1]: 14.8 ± 2.54%
- viability at 24 h, 100 µg/mL [1]: 13.4 ± 0.48%
- IC50 at 24 h [2]: < 11.7 µM
- viability at 24 h, 6.25 µg/mL [2]: 28.5 ± 1.98%
- viability at 24 h, 12.5 µg/mL [2]: 16.6 ± 0.52%
- viability at 24 h, 25 µg/mL [2]: 15 ± 0.29%
- viability at 24 h, 50 µg/mL [2]: 11.67 ± 0.08%
- viability at 24 h, 100 µg/mL [2]: 10.8 ± 0.09%
- viability at 24 h, 6.25 µg/mL [3]: 71 ± 1.69%
- viability at 24 h, 12.5 µg/mL [3]: 38.4 ± 3.18%
- viability at 24 h, 25 µg/mL [3]: 21 ± 2.61%
- viability at 24 h, 50 µg/mL [3]: 13.3 ± 0.89%
- viability at 24 h, 100 µg/mL [3]: 12.5 ± 1.24%
- IC50 (leukemic K562 cells): 17.6 µM
- viability at 24 h, 6.25 µg/mL [4]: 30.8 ± 0.4%
- viability at 24 h, 12.5 µg/mL [4]: 23.4 ± 0.25%
- viability at 24 h, 25 µg/mL [4]: 17.6 ± 0.7%
- viability at 24 h, 50 µg/mL [4]: 15.6 ± 0.77%
- viability at 24 h, 100 µg/mL [4]: 14.9 ± 0.57%
- IC50 [6]: < 11.7 µM

SMILES: C/C=C(\C)[C@@H](OC(C)=O)[C@@H](C)C1=CC(=O)C2=C(O[C@]3(C)CC[C@H]4O[C@@H](C(C)(C)O)CC[C@]4(C)[C@H]3[C@@H]2O)C1=O [Compound 3, stemphone]
- viability at 24 h, 100 µg/mL (in vitro): 71.4 ± 2.67%
- inhibition at 100 µg/mL ([5]; Mus musculus, RAW264.7, 24 h): 73.41 ± 0.44%
- IC50 ([5]; Mus musculus, RAW264.7, 24 h): 32.8 µM

SMILES: CC[C@H](C)[C@@H](OC(C)=O)[C@@H](C)C1=CC(=O)C2=C(O[C@]3(C)CC[C@H]4O[C@@H](C(C)(C)O)CC[C@]4(C)C3=C2)C1=O [Compound 4, anhydrocochlioquinone A]
- IC50 (lung cancer A549 cells): < 12.1 µM
- viability at 24 h, 6.25 µg/mL [1]: 12.4 ± 0.17%
- viability at 24 h, 12.5 µg/mL [1]: 11.6 ± 1.05%
- viability at 24 h, 25 µg/mL [1]: 10.2 ± 0.17%
- viability at 24 h, 50 µg/mL [1]: 9.35 ± 0.52%
- viability at 24 h, 100 µg/mL [1]: 8.4 ± 0.58%
- inhibition ratio, cytotoxicity against A549 [7]: 41%
- IC50 at 24 h [2]: < 12.1 µM
- viability at 24 h, 6.25 µg/mL [2]: 14.3 ± 0.73%
- viability at 24 h, 12.5 µg/mL [2]: 12.4 ± 0.47%
- viability at 24 h, 25 µg/mL [2]: 12.1 ± 0.42%
- viability at 24 h, 50 µg/mL [2]: 12.8 ± 0.7%
- viability at 24 h, 100 µg/mL [2]: 11.1 ± 0.43%
- viability at 24 h, 6.25 µg/mL [3]: 19.5 ± 2.62%
- viability at 24 h, 12.5 µg/mL [3]: 14 ± 2.31%
- viability at 24 h, 25 µg/mL [3]: 12.9 ± 0.34%
- viability at 24 h, 50 µg/mL [3]: 11.3 ± 0.4%
- viability at 24 h, 100 µg/mL [3]: 10.6 ± 0.2%
- IC50 (leukemic K562 cells): < 12.1 µM
- viability at 24 h, 6.25 µg/mL [4]: 17.3 ± 0.33%
- viability at 24 h, 12.5 µg/mL [4]: 15.6 ± 0.39%
- viability at 24 h, 25 µg/mL [4]: 15.4 ± 0.42%
- viability at 24 h, 50 µg/mL [4]: 14.7 ± 0.24%
- viability at 24 h, 100 µg/mL [4]: 14.4 ± 0.4%
- IC50 [6]: < 12.1 µM

SMILES: CCCC1C2=C(CCC3C(=O)OC(=O)C3=CC1CC)C(=O)OC2=O (stereo not shown) [Compound 5, curvulariahawadride]
- IC50 ([5]; LPS 1 µg/mL, 24 h): 12.8 µM
- IC50 ([5]; Mus musculus, RAW264.7, 24 h, LPS 1 µg/mL, 24 h): 12.9 µM
- inhibition at 100 µg/mL [5, 8]: 74 ± 1.14%

- NO Production Inhibition IC50 ([5]; LPS 1 µg/mL, 24 h): inactive
SMILES: C/C1=C\C[C@]2(C)C(=O)C(O)=C([C@H](C)CO)[C@H]2C/C=C(\C)[C@@H](O)CC/C(C)=C/CC1 [Compound 6, terpestacin]
- viability at 24 h, 100 µg/mL [1]: 92 ± 3.75%
- viability at 24 h, 100 µg/mL [2]: 99.3 ± 2.51%
- viability at 24 h, 100 µg/mL [3]: 99.2 ± 3.84%
- viability at 24 h, 100 µg/mL [4]: 97.7 ± 1.04%
- inhibition at 100 µg/mL [5, 8]: 41 ± 3.36%

- IC50 [5, 9]: 73.4 µM
SMILES: COc1ccc2c(c1)c(CC(=O)O)c(C)n2C(=O)c1ccc(Cl)cc1 [Indomethacin, reference compound]
- inhibition at 100 µg/mL [5, 8]: 77.45 ± 0.28%
